Test results published in ChEMBL document CHEMBL5131385, “Novel piperazine based benzamide derivatives as potential anti-glioblastoma agents inhibiting cell proliferation and cell cycle progression” (Eur J Med Chem, 2022).
The source made the active and inactive calls. The calls are words filed in the database; no cut-off is given here.

Legend:
U-87MG ATCC [1] = assay: Induction of apoptosis in human U-87 MG cells assessed as decrease in cell size at 0.075 to 1.20 uM measured after 72 hrs by Giemsa staining based microscopic analysis; format: functional; conditions: dose 0.075-1.2 µM
U-87MG ATCC [2] = assay: Downregulation of CDK4 gene expression in human U-87 MG cells at 0.075 to 1.2 uM measured after 72 hrs by western blot analysis; format: functional, cell-based; conditions: dose 0.075-1.2 µM
[3] = Induction of apoptosis in human U-87 MG cells assessed as late apoptotic cells at 1.20 uM incubated for 72 hrs by Annexin V-FITC/PI staining based flow cytometry method (reference value: 0.42 %); format: functional, U-87MG ATCC; conditions: dose 1.2 µM
U-251 [4] = assay: Induction of apoptosis in human U-251 cells assessed as viable cells at 6 uM incubated for 72 hrs by Annexin V-FITC/PI staining based flow cytometry method (reference value: 96.22 %); format: functional; conditions: read-out: Activity
[5] = AUC (0 to infinity) in Sprague-Dawley rat brain at 100 mg/kg, ip and measured upto 240 mins by LC-MS analysis; format: ADME, organism-based; parameters: dose 100 mg/kg, time < 240 min, route ip
U-251 [6] = assay: Induction of apoptosis in human U-251 cells assessed as necrotic cells at 6 uM incubated for 72 hrs by Annexin V-FITC/PI staining based flow cytometry method (Rvb =0.51 %); format: functional
[7] = Half life in Sprague-Dawley rat plasma at 100 mg/kg, ip and measured upto 240 mins by LC-MS analysis; format: ADME, organism-based
U-251 [8] = assay: Antiproliferative activity against human U-251 cells assessed as reduction in colony number at 0.25 to 1 uM for 2 to 3 weeks by crystal violet staining based plate clone formation assay; format: functional, cell-based; conditions: dose 0.25-1 µM, time 2-3 weeks, DDE = dose-dependent effect
U-87MG ATCC [9] = assay: Downregulation of pRb gene expression in human U-87 MG cells at 0.075 to 1.2 uM measured after 72 hrs by western blot analysis; format: functional, cell-based; conditions: dose 0.075-1.2 µM
U-251 [10] = assay: Induction of apoptosis in human U-251 cells assessed as formation of spindle shaped cells at 0.375 to 6 uM measured after 72 hrs by Giemsa staining based microscopic analysis; format: functional, cell-based; conditions: dose 0.375-6 µM
U-87MG ATCC [11] = assay: Downregulation of cyclin D1 gene expression in human U-87 MG cells at 0.075 to 1.2 uM measured after 72 hrs by western blot analysis; format: functional, cell-based; conditions: dose 0.075-1.2 µM
U-87MG ATCC [12] = assay: Antitumor activity against human U-87 MG cells xenografted in BALB/c mouse assessed assessed as inhibition of tumor cell proliferation at 10 mg/kg,ip bid for 1 month by Ki67 staining based immunohistochemical analysis; format: functional, organism-based; conditions: time 1.0 months
[13] = Induction of apoptosis in human U-87 MG cells assessed as early apoptotic cells at 0.30 uM incubated for 72 hrs by Annexin V-FITC/PI staining based flow cytometry method (reference value: 2.53 %); format: functional, U-87MG ATCC; conditions: dose 0.3 µM
[14] = Cmax in Sprague-Dawley rat brain at 100 mg/kg, ip and measured upto 240 mins by LC-MS analysis; format: ADME, organism-based; parameters: time < 240 min, dose 100 mg/kg, route ip
U-251 [15] = assay: Antimigratory activity in human U-251 cells assessed as inhibition of cell migration by measuring wound closure at 0.25 to 1.0 uM and measured after 24 hrs by wound healing assay; format: functional, cell-based; conditions: dose 0.25-1 µM, DDE = dose-dependent effect
U-87MG ATCC [16] = assay: Induction of cell cycle arrest in human U-87 MG cells assessed as decrease in accumulation at G2/M phase at 0.075 to 1.20 uM measured after 72 hrs by flow cytometry; format: functional, cell-based; conditions: dose 0.075-1.2 µM, DDE = dose-dependent effect
U-251 [17] = assay: Induction of apoptosis in human U-251 cells assessed as morphological changes at 0.375 to 6 uM measured after 72 hrs by Giemsa staining based microscopic analysis; format: functional, cell-based; conditions: dose 0.375-6 µM
U-87MG ATCC [18] = assay: Induction of apoptosis in human U-87 MG cells assessed as morphological changes at 0.075 to 1.20 uM measured after 72 hrs by Giemsa staining based microscopic analysis; format: functional, cell-based; conditions: dose 0.075-1.2 µM
[19] = Acute toxicity in Kunming mouse assessed as pathological changes in heart at 600 mg/kg, ip measured after 24 hrs by H and E staining analysis; format: organism-based; conditions: in vivo
U-87MG ATCC [20] = assay: Antiproliferative activity against human U-87 MG cells assessed as release of LDH in supernatant and measured after 72 hrs by microplate reader assay; format: functional, cell-based; conditions: DDE = dose-dependent effect
U-251 [21] = assay: Downregulation of E2F gene expression in human U-251 cells at 0.075 to 1.2 uM measured after 72 hrs by western blot analysis; format: functional, cell-based; conditions: dose 0.075-1.2 µM
[22] = Acute toxicity in Kunming mouse assessed as pathological changes in kidney at 600 mg/kg, ip measured after 24 hrs by H and E staining analysis; format: organism-based; conditions: in vivo
[23] = Induction of apoptosis in human U-87 MG cells assessed as late apoptotic cells at 0.30 uM incubated for 72 hrs by Annexin V-FITC/PI staining based flow cytometry method (reference value: 0.42 %); format: functional, U-87MG ATCC; conditions: dose 0.3 µM
[24] = AUC (0 to infinity) in Sprague-Dawley rat plasma at 100 mg/kg, ip and measured upto 240 mins by LC-MS analysis; format: ADME, organism-based; parameters: time < 240 min, dose 100 mg/kg, route ip
U-87MG ATCC [25] = assay: Antitumor activity against human U-87 MG cells xenografted in BALB/c mouse assessed as decrease in tumor weight at 10 mg/kg,ip bid for 1 month; format: functional, organism-based; conditions: time 1.0 months
[26] = Half life in Sprague-Dawley rat brain at 100 mg/kg, ip and measured upto 240 mins by LC-MS analysis; format: ADME, organism-based
[27] = Antitumor activity against human U-87 MG cells xenografted in BALB/c mouse assessed as tumor growth inhibition at 10 mg/kg,ip bid for 1 month; format: functional, U-87MG ATCC; conditions: 730 h, time 1 months, read-out: TGI
U-251 [28] = assay: Antimigratory activity in human U-251 cells assessed as inhibition of cell migration by measuring wound closure at 0.25 to 1.0 uM and measured after 24 hrs by transwell migration assay; format: functional, cell-based; conditions: dose 0.25-1 µM, DDE = dose-dependent effect
U-251 [29] = assay: Induction of apoptosis in human U-251 cells assessed as late apoptotic cells at 6 uM incubated for 72 hrs by Annexin V-FITC/PI staining based flow cytometry method (Rvb =1.31 %); format: functional
U-251 [30] = assay: Induction of apoptosis in human U-251 cells assessed as late apoptotic cells at 0.375 uM incubated for 72 hrs by Annexin V-FITC/PI staining based flow cytometry method (Rvb =1.31 %); format: functional
U-251 [31] = assay: Antiproliferative activity against human U-251 cells assessed as release of LDH in supernatant and measured after 72 hrs by microplate reader assay; format: functional, cell-based; conditions: DDE = dose-dependent effect
[32] = AUC (0 to t) in Sprague-Dawley rat brain at 100 mg/kg, ip and measured upto 240 mins by LC-MS analysis; format: ADME, organism-based; parameters: dose 100 mg/kg, time < 240 min, route ip
[33] = Induction of apoptosis in human U-87 MG cells assessed as necrotic cells at 1.20 uM incubated for 72 hrs by Annexin V-FITC/PI staining based flow cytometry method (reference value: 0.21 %); format: functional, U-87MG ATCC; conditions: dose 1.2 µM
U-251 [34] = assay: Induction of apoptosis in human U-251 cells assessed as early apoptotic cells at 1.50 uM incubated for 72 hrs by Annexin V-FITC/PI staining based flow cytometry method (Rvb =1.96 %); format: functional; conditions: dose 1.5 µM
U-251 [35] = assay: Antiproliferative activity against human U-251 cells assessed as inhibition of cell proliferation upto 72 hrs by CCK8 assay; format: functional, cell-based; conditions: TDE = time-dependent effect

In the case of COCCN1CCN(c2ccc(F)cc2C(=O)Nc2ccc(CNC(=O)OCc3cccnc3)cc2)CC1, the Activity (U-87MG ATCC [1]) is reported as “Active”, the Activity (U-87MG ATCC [2]) is reported as “Active” and the Activity [3] is reported as 9.97%. For the same molecule, the viability at 6 µM (U-251 [4]) was 86.8%, the AUC(0-inf) [5] was 102000 ng·h/mL and the Activity (U-251 [6]) was 2.63%. The half-life [7] was 52.8 min, the Activity (U-251 [8]) was “Dde” and the Activity (U-87MG ATCC [9]) was “Active”. For the same molecule, the Activity (U-251 [10]) was “Active”, the Activity (U-87MG ATCC [11]) was “Active” and the Activity (U-87MG ATCC [12]) was “Active”. The Activity [13] was 4.51%, the Cmax [14] was 92.5 µg/mL and the Activity (U-251 [15]) was “Dde”. For the same molecule, the Activity (U-87MG ATCC [16]) was “Dde”, the Activity (U-251 [17]) was “Active” and the Activity (U-87MG ATCC [18]) was “Active”. The Activity [19] was “Non-Toxic”, the Activity (U-87MG ATCC [20]) was “Dde” and the Activity (U-251 [21]) was “Active”. For the same molecule, the Activity [22] was “Non-Toxic”, the Activity [23] was 0.95% and the AUC(0-inf) [24] was 95500 ng·h/mL. The Activity (U-87MG ATCC [25]) was “Active”, the half-life [26] was 43.8 min and the inhibition in vivo at 10 mg/kg [27] was 70.5%. The Activity (U-251 [28]) was “Dde”, the Activity (U-251 [29]) was 5.75% and the Activity (U-251 [30]) was 1.61%. For the same molecule, the Activity (U-251 [31]) was “Dde”, the AUC(0-t) at 4 h [32] was 97000 ng·h/mL and the Activity [33] was 1.76%. The Activity (U-251 [34]) was 2.9% and the Activity (U-251 [35]) was “Tde”.
